One assay deals with PDK1 (Homo sapiens (Human), UniProt O15530). Put plainly: PDK1 kinase assay (coupled PDK1/AKT/FAM-crosstide assay, IMAP fluorescence polarization). In kind it is biochemical. A digest of the protocol: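 PDK1 activity is measured indirectly through activation of a PIFtide-fused AKT2 construct that phosphorylates FAM-crosstide (100 nM). The reaction uses 0.75 nM PDK1, 40 μM ATP, 30 min, 25° C, with IMAP polarization detection.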

Assay [1] relates to phospho-akt (Thr308) in PC-3 cells. Put plainly: Inhibition of phospho-akt (Thr308) in PC-3 cells, MSD phospho-akt 308 ELISA kit. The class given is cell-based. Particulars: 2 hours, no serum, read-out: EC50. A digest of the protocol: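 Read-out is MSD electrochemiluminescence of Akt phosphorylated at Thr308 in lysates of PC-3 cells treated 2 h with compound in serum-free medium. Wortmannin at 5 μM defined the low control and DMSO the high control.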

[2] abbreviates: inhibition of phospo-PDK1 in vitro.
The mark [3] stands for this setting: Homo sapiens, inhibition of P308 Akt in PC-3 cells using MSD.
The mark [4] stands for this setting: Homo sapiens, inhibition of P308 Akt in PC-3 cells, MSD.

Where a name gives a salt, the structure may show the parent alone. Read-outs that look alike come from different tables or passages of the source.

Chain of PDK1 (O15530 51-359): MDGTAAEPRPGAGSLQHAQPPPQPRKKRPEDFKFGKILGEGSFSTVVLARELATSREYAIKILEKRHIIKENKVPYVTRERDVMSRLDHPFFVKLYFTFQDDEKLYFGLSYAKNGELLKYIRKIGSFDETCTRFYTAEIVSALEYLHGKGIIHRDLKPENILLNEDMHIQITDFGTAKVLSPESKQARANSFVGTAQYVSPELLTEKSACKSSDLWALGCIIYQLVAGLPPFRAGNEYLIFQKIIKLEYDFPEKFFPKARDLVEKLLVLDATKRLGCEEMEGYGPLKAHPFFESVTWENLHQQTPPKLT

`O=C(NCc1ccc(F)c(F)c1)c1cccnc1NCc1ccc(-c2cnc3[nH]ccc3c2)s1` [Example 2.31, 2-(((5-(1H-pyrrolo[2,3-b]pyridin-5-yl)thiophen-2-yl)methyl)amino)-N-(3,4-difluorobenzyl) nicotinamide] yielded an IC50 at PDK1 (setting [2]) of 100 to 1000 nM. Moreover, the concentration giving a half-maximal response (EC50) in assay [1] (inhibition of P308 Akt in PC-3 cells, MSD) was in the range of 1000 to 10000 nM.

Consider `CCN(CC)CCNC(=O)c1cc(-c2ccc(CNc3ncc(C#N)cc3C(=O)N[C@@H](C)c3ccc(F)cc3)cc2)cnc1N` [Example 118], for which the IC50 against PDK1 (inhibition of PDK1 in vitro) is < 100 nM. Further, the half-maximal effective concentration (EC50) in assay [1] (setting [3]) lay in the range of 1000 to 10000 nM.

`CN(Cc1ccc(F)c(F)c1)C(=O)c1cccnc1NCc1ccc(-c2ccc3ncnc(N)c3c2)s1` [Example 3.13, 2-({[5-(4-aminoquinazolin-6-yl)thiophen-2-yl]methyl}amino)-N-(3,4-difluorobenzyl)-N-methylpyridine-3-carboxamide (TFA salt)] came in with a half-maximal inhibitory concentration (IC50) on PDK1 (setting [2]) of 100 to 1000 nM. Also, in assay [1] (setting [4]), the 50% effective concentration (EC50) was > 10000 nM.

In the case of `Nc1n[nH]c2ncc(-c3ccc(CNc4ncc(C(F)(F)F)cc4C(=O)N[C@@H](CO)c4ccc(Br)cc4)cc3)cc12` [Example 283, (R)-2-(4-(3-amino-1H-pyrazolo [3,4-b]pyridin-5-yl)benzylamino)-N-(1-(4-bromophenyl)-2-hydroxyethyl)-5-(trifluoromethyl)nicotinamide], the IC50 at PDK1 (inhibition of PDK1 in vitro) is > 5000 nM. Besides, in assay [1] (setting [3]), the EC50 was 1000 to 10000 nM.

Regarding `C[C@H](NC(=O)c1nc(C#N)cnc1NCc1ccc(-c2cnc(N)c(O[C@H]3CCNC3)n2)cc1)c1ccc(F)c(F)c1` [Example 164, 3-{4-[5-Amino-6-((S)-pyrrolidin-3-yloxy)-pyrazin-2-yl]-benzylamino}-6-cyano-pyrazine-2-carboxylic acid [(S)-1-(3,4-difluoro-phenyl)-ethyl]-amide], the IC50 on PDK1 (inhibition of PDK1 in vitro) was < 100 nM. Moreover, the concentration for a half-maximal effect (EC50) in assay [1] (setting [3]) was < 1000 nM.

As for `Nc1ncnc2ccc(-c3ccc(CNc4ncc(C5COC5)cc4C(=O)NCc4ccc(F)c(F)c4)s3)cc12` [Ex. 8.8.4, 2-((5-(4-aminoquinazolin-6-yl)thiophen-2-yl)methylamino)-N-(3,4-difluorobenzyl)-5-(oxetan-3-yl)nicotinamide], the IC50 at PDK1 (setting [2]) is < 100 nM. Moreover, in assay [1] (setting [4]), the EC50 is < 1000 nM.

Turning to `Cc1ccc(CNC(=O)c2cccnc2NCc2cc(OC(C)C)cc(-c3c[nH]c4ncc(C(=O)NC5CC5)cc34)c2)o1` [Example 4.1.14, N-cyclopropyl-3-[3-{[(3-{[(5-methylfuran-2-yl)methyl]carbamoyl}pyridin-2-yl)amino]methyl}-5-(propan-2-yloxy)phenyl]-1H-pyrrolo[2,3-b] pyridine-5-carboxamide], the half-maximal inhibitory concentration (IC50) on PDK1 (setting [2]) is < 100 nM. The 50% effective concentration (EC50) in assay [1] (setting [4]) was in the range of 1000 to 10000 nM.

For the compound `CNC(=O)c1ncnc2ccc(-c3ccc(CNc4ncccc4C(=O)N[C@@H](C)c4ccc(F)c(F)c4)s3)cc12` [Example 4.25, (S)-6-(5-((3-(1-(3,4-difluorophenyl)ethyl-carbamoyl)pyridin-2-ylamino)methyl)thiophen-2-yl)-N-methylquinazoline-4-carboxamide], on PDK1 (setting [2]), the concentration for half-maximal inhibition (IC50) is > 5000 nM. For the same compound, the concentration giving a half-maximal response (EC50) in assay [1] (setting [4]) was > 10000 nM.

For the compound `Nc1ncnc2ccc(-c3ccc(CNc4ncc(Br)nc4C(=O)NCc4ccc(F)c(F)c4)s3)cc12` [Ex. 10.2, 3-({[5-(4-aminoquinazolin-6-yl)thiophen-2-yl]methyl}amino)-6-bromo-N-(3,4-difluorobenzyl)pyrazine-2-carboxamide], at PDK1 (setting [2]), the IC50 is < 100 nM. In assay [1] (setting [4]), the EC50 was in the range of 1000 to 10000 nM.

Regarding `C[C@H](NC(=O)c1cc(C#N)cnc1NCc1ccc(-c2cnc3[nH]nc(N)c3n2)cc1)c1ccc(F)cc1` [Example 183, 2-[4-(3-Amino-1H-pyrazolo [3,4-b]pyrazin-5-yl)-benzylamino]-5-cyano-N-[(S)-1-(4-fluoro-phenyl)-ethyl]-nicotinamide], the 50% inhibitory concentration (IC50) on PDK1 (inhibition of PDK1 in vitro) was < 100 nM. For the same compound, in assay [1] (setting [3]), the half-maximal effective concentration (EC50) was < 1000 nM.

In the case of `C[C@H](NC(=O)c1cc(C#N)cnc1NCc1ccc(-c2cnc(N)c(CCCCN)n2)cc1)c1ccc(F)cc1` [Example 71, 2-{4-[5-Amino-6-(4-amino-butyl)-pyrazin-2-yl]-benzyl-amino}-5-cyano-N-[(S)-1-(4-fluoro-phenyl)-ethyl]-nicotinamide], the half-inhibitory concentration (IC50) at PDK1 (inhibition of PDK1 in vitro) was < 100 nM. In assay [1] (setting [3]), the EC50 was < 1000 nM.

`C[C@H](NC(=O)c1cc(C#N)cnc1NCC1CCN(c2cnc(N)cn2)CC1)c1ccc(F)cc1` [Example 61, (S)-2-(((1-(5-aminopyrazin-2-yl)piperidin-4-yl)methyl)amino)-5-cyano-N-(1-(4-fluorophenyl)ethyl)nicotinamide] yielded a concentration for half-maximal inhibition (IC50) on PDK1 (inhibition of PDK1 in vitro) of 1000 to 5000 nM. Moreover, the EC50 in assay [1] (setting [3]) is > 10000 nM.

Regarding `CCC(C)NS(=O)(=O)c1cnc(NCc2ccc(-c3ccc4ncnc(N)c4c3)s2)c(C(=O)NCc2ccc(F)c(F)c2)c1` (stereo not drawn) [Example 8.7.10, 2-({[5-(4-aminoquinazolin-6-yl)thiophen-2-yl]methyl}amino)-5-(butan-2-ylsulfamoyl)-N-(3,4-difluorobenzyl)pyridine-3-carboxamide], the IC50 against PDK1 (setting [2]) is 100 to 1000 nM. Also, in assay [1] (setting [4]), the concentration for a half-maximal effect (EC50) lay within 1000 to 10000 nM.

Turning to `C=C(C)c1cnc(NCc2ccc(-c3ccc4ncnc(N)c4c3)s2)c(C(=O)NCc2ccc(F)c(F)c2)c1` [Ex. 8.13, 2-({[5-(4-aminoquinazolin-6-yl)thiophen-2-yl]methyl}amino)-N-(3,4-difluorobenzyl)-5-(prop-1-en-2-yl)pyridine-3-carboxamide], the concentration for half-maximal inhibition (IC50) against PDK1 (setting [2]) was < 100 nM. In assay [1] (setting [4]), the 50% effective concentration (EC50) was < 1000 nM.

Consider `C[C@H](NC(=O)c1cc(C(F)(F)F)cnc1NCc1ccc(-c2cc3c(N)ncnc3cn2)s1)c1ccc(F)c(F)c1` [Example 8.12.8, 2-({[5-(4-aminopyrido [3,4-d]pyrimidin-6-yl)thiophen-2-yl]methyl}amino)-N-[(1S)-1-(3,4-difluorophenyl)ethyl]-5-(trifluoromethyl) pyridine-3-carboxamide], for which the IC50 against PDK1 (setting [2]) is 100 to 1000 nM. In addition, in assay [1] (setting [4]), the EC50 was 1000 to 10000 nM.

Consider `Nc1ncc(-c2ccc(CNc3ncc(C(F)(F)F)cc3C(=O)Nc3ccc(F)cc3)cc2)nc1O[C@H]1CCNC1` [Example 163, 2-{4-[5-Amino-6-((S)-pyrrolidin-3-yloxy)-pyrazin-2-yl]-benzylamino}-N-(4-fluoro-phenyl)-5-trifluoromethyl-nicotinamide], for which the IC50 against PDK1 (inhibition of PDK1 in vitro) was < 100 nM. Moreover, the concentration giving a half-maximal response (EC50) in assay [1] (setting [3]) was < 1000 nM.

For the compound `C[C@H](NC(=O)c1cc(C#N)cnc1NCc1ccc(-c2cccc3n[nH]c(=O)n23)cc1)c1ccc(F)cc1` [Example 144, (S)-5-cyano-N-(1-(4-fluorophenyl)ethyl)-2-(4-(3-oxo-2,3-dihydro-[1,2,4]triazolo[4,3-a]pyridin-5-yl)benzyl-amino)nicotinamide], the IC50 at PDK1 (inhibition of PDK1 in vitro) is > 5000 nM. Further, in assay [1] (setting [3]), the 50% effective concentration (EC50) is > 10000 nM.

Take `Nc1ncnc2ccc(-c3ccc(CNc4ncc([N+](=O)[O-])cc4C(=O)NCc4ccc(F)c(F)c4)s3)cc12` [Ex. 8.2, 2-{[5-(4-Amino-quinazolin-6-yl)-thiophen-2-ylmethyl]-amino}-N-(3,4-difluoro-benzyl)-5-nitro-nicotinamide]: the concentration for half-maximal inhibition (IC50) on PDK1 (setting [2]) was < 100 nM. Besides, the EC50 in assay [1] (setting [4]) is < 1000 nM.

With `CC(C)(N)CCc1nc(-c2ccc(CNc3ncc(C(F)(F)F)cc3C(=O)Nc3ccc(F)cc3)cc2)cnc1N` [Example 83, 2-{4-[5-Amino-6-(3-amino-3-methyl-butyl)-pyrazin-2-yl]-benzylamino}-N-(4-fluoro-phenyl)-5-trifluoro-methyl-nicotinamide], on PDK1 (inhibition of PDK1 in vitro), the concentration for half-maximal inhibition (IC50) was < 100 nM. The concentration giving a half-maximal response (EC50) in assay [1] (setting [3]) is < 1000 nM.

As for `Nc1ncc(-c2ccc(CNc3ncc(C(F)(F)F)cc3C(=O)Nc3ccc(F)cc3)cc2)nc1O[C@@H]1CCC[C@H]1N` [Example 173, 2-{4-[5-Amino-6-((1R,2R)-2-amino-cyclopentyloxy)-pyrazin-2-yl]-benzylamino}-N-(4-fluoro-phenyl)-5-trifluoromethyl-nicotinamide], on PDK1 (inhibition of PDK1 in vitro), the 50% inhibitory concentration (IC50) is < 100 nM. The EC50 in assay [1] (setting [3]) is < 1000 nM.

`C[C@H](NC(=O)c1cccnc1NCc1ccc(-c2cc3c(N)ncnc3cn2)s1)c1ccc(F)cc1` [Example 2.13.1, (S)-2-(((5-(4-aminopyrido[3,4-d]pyrimidin-6-yl)thiophen-2-yl)methyl)amino)-N-(1-(4-fluoro-phenyl)ethyl)nicotinamide] displayed an IC50 against PDK1 (setting [2]) of 100 to 1000 nM. The concentration for a half-maximal effect (EC50) in assay [1] (Homo sapiens, PC-3, 2 h, inhibition of P308 Akt in PC-3 cells, MSD) lay within 1000 to 10000 nM.

As for `CC(=O)Nc1cnc(NCc2ccc(-c3ccc4ncnc(N)c4c3)s2)c(C(=O)NCc2ccc(F)c(F)c2)c1` [Ex. 8.5.1, 5-(acetylamino)-2-({[5-(4-aminoquinazolin-6-yl)thiophen-2-yl]methyl}amino)-N-(3,4-difluorobenzyl)pyridine-3-carboxamide], the IC50 against PDK1 (setting [2]) is < 100 nM. The EC50 in assay [1] (setting [4]) lay in the range of 1000 to 10000 nM.

On to `CNc1ncc2cc(O[C@@H](C)CNc3ncc(C#N)nc3C(=O)N[C@@H](C)c3ccc(F)c(F)c3)ccc2n1` [Example 254, 6-cyano-N-((S)-1-(3,4-difluorophenyl)ethyl)-3-((S)-2-(2-(methylamino)quinazolin-6-yloxy)propylamino)pyrazine-2-carboxamide], for which the IC50 on PDK1 (inhibition of PDK1 in vitro) was in the range of 100 to 1000 nM. In assay [1] (Homo sapiens, PC-3, 2 h, inhibition of P308 Akt in PC-3 cells using MSD), the EC50 fell in the range of 1000 to 10000 nM.

In the case of `Nc1ncnc2ccc(-c3ccc(CNc4ncccc4C(=O)NCc4cc(F)ccc4C(F)(F)F)s3)cc12` [Example 3.12, 2-({[5-(4-aminoquinazolin-6-yl)thiophen-2-yl]methyl}amino)-N-[5-fluoro-2-(trifluoromethyl)benzyl]pyridine-3-carboxamide (TFA salt)], the half-inhibitory concentration (IC50) against PDK1 (setting [2]) is > 5000 nM. Further, in assay [1] (setting [4]), the concentration giving a half-maximal response (EC50) is > 10000 nM.

The term IC50 denotes the midpoint of a concentration-inhibition curve. Higher therefore signals lower potency. By EC50 is commonly meant the concentration needed to bring the measured effect to its halfway point.

These data come from patent publication US10030016B2 (Sunesis Pharmaceuticals, Inc., priority 2009, dated 2018).
